Patent US11840686B2, “Modulation of prekallikrein (PKK) expression” (Ionis Pharmaceuticals, Inc., priority 2013, dated 2023)
Strand notation (5' to 3'): a small letter for the sugar, then the base; units joined by * are phosphorothioate-linked, units joined directly phosphodiester-linked; [ ] holds rarer units or linkages, { } end groups; capitals alone tell only the bases. e = 2'-O-(2-methoxyethyl) (MOE); [5mC] = 5-methylcytosine; d = 2'-deoxy (DNA)

tested on: human PKK mRNA; experiment: Antisense inhibition of human PKK mRNA in HepaRG cells, 3,000 nM (Example 1); assay type: cell-based; conditions: Table 1; PKK mRNA, HepaRG cells, 3,000 nM, electroporation, ~24 h, relative to untreated control cells
Method in brief: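 Values give percent PKK mRNA reduction relative to untreated controls, normalised to RIBOGREEN total RNA. mRNA was quantified by real-time PCR (RTS3454) about 24 h after electroporation. Each 20-mer MOE gapmer was delivered at 3,000 nM into 20,000 HepaRG cells per well.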

Substance	% inhibition
530935 (antisense eG*e[5mC]*eT*eT*eG*dA*dA*dT*dA*dA*dA*dA*dT*d[5mC]*dA*eT*eT*e[5mC]*eT*eG) [compound 530935]	0%
530996 (eT*eG*eA*e[5mC]*eA*dG*d[5mC]*dG*dA*dA*dT*d[5mC]*dA*dT*d[5mC]*eT*eT*eT*eG*eT; antisense) [compound 530996]	51%
530956 (antisense eA*e[5mC]*eA*e[5mC]*eT*dA*dT*d[5mC]*dT*dT*dT*d[5mC]*dA*dA*dG*eA*eA*eG*e[5mC]*eA) [compound 530956]	57%
530990 (eA*eT*eT*e[5mC]*eT*dT*d[5mC]*dT*d[5mC]*d[5mC]*dT*d[5mC]*d[5mC]*dA*dA*eA*eG*eT*e[5mC]*eA; antisense) [compound 530990]	32%

same assay, conditions: Table 2; PKK mRNA, HepaRG cells, 3,000 nM, electroporation, ~24 h, relative to untreated control cells

Substance	% inhibition
531079 (eT*e[5mC]*e[5mC]*eT*e[5mC]*dA*dG*d[5mC]*dA*dG*d[5mC]*dT*d[5mC]*dT*dG*eA*eG*eT*eG*e[5mC]; antisense) [compound 531079]	58%
531056 (antisense eT*eT*eT*e[5mC]*e[5mC]*d[5mC]*d[5mC]*d[5mC]*dT*dT*d[5mC]*dT*dT*dT*dA*eT*eA*eG*e[5mC]*e[5mC]) [compound 531056]	45%
531067 (eT*eA*e[5mC]*eT*e[5mC]*dA*dG*d[5mC]*dG*dA*d[5mC]*dT*dT*dT*dG*eG*eT*eG*eT*eA; antisense) [compound 531067]	31%
531021 (eG*eT*e[5mC]*eT*eG*dA*d[5mC]*dA*dG*dA*dT*dT*dT*dA*dA*eA*eA*eT*eG*e[5mC]; antisense) [compound 531021]	50%
531075 (e[5mC]*e[5mC]*eA*eT*eG*d[5mC]*dT*dT*dT*dG*d[5mC]*dA*dG*dA*dT*eG*eA*eG*eG*eA; antisense) [compound 531075]	64%
531025 (eT*e[5mC]*eT*e[5mC]*eT*dT*dT*dT*dA*dT*dT*dT*dG*dT*dG*eA*eG*eA*eA*eA; antisense) [compound 531025]	34%
531027 (antisense eA*eA*eA*eG*eG*dA*dG*d[5mC]*d[5mC]*dT*dG*dG*dA*dG*dT*eT*eT*eT*eA*eT) [compound 531027]	0%

same assay, conditions: Table 3; HepaRG cells, electroporation with 3,000 nM antisense oligonucleotide, approx. 24 hours; PKK mRNA by RT-PCR (RTS3454), relative to untreated control cells

Substance	% inhibition
531092 (e[5mC]*e[5mC]*eT*eT*e[5mC]*dA*d[5mC]*dT*dG*dA*d[5mC]*dT*d[5mC]*dT*d[5mC]*eT*eT*eT*eT*e[5mC]; antisense) [compound 531092]	24%
531112 (antisense eA*eT*eG*eT*eA*dT*dG*dA*dT*dT*d[5mC]*dT*dA*dA*dG*eA*eA*e[5mC]*eT*eT) [compound 531112]	14%
531132 (antisense eA*eG*eT*eG*eA*dG*dG*dT*dT*dA*d[5mC]*dT*d[5mC]*dA*d[5mC]*e[5mC]*eA*eG*eA*eG) [compound 531132]	0%
531084 (eA*eT*eA*eG*eG*dG*dA*d[5mC]*dA*d[5mC]*dA*dA*d[5mC]*d[5mC]*dA*eA*eG*eG*eA*eA; antisense) [compound 531084]	25%

same assay, conditions: Table 4; HepaRG cells, electroporation with 3,000 nM antisense oligonucleotide, approx. 24 hours; PKK mRNA by RT-PCR (RTS3454), relative to untreated control cells

Substance	% inhibition
531217 (eG*eT*eG*eG*eA*dA*dT*dA*dA*dA*d[5mC]*d[5mC]*dA*dT*dA*eA*eT*e[5mC]*eT*eA; antisense) [compound 531217]	47%
531219 (e[5mC]*eT*eT*e[5mC]*eT*d[5mC]*dT*dA*dT*d[5mC]*dT*d[5mC]*d[5mC]*d[5mC]*dA*eG*eT*eG*eT*eT; antisense) [compound 531219]	61%
531230 (e[5mC]*eT*eT*eA*e[5mC]*dT*dG*dG*dG*d[5mC]*dT*dA*dA*dA*dA*eT*e[5mC]*eA*eA*eG; antisense) [compound 531230]	46%
531194 (e[5mC]*eT*e[5mC]*eA*e[5mC]*dA*dA*dT*dT*d[5mC]*dT*dG*dT*dA*dA*eG*eG*eG*eA*eA; antisense) [compound 531194]	64%
531189 (eA*eG*eG*eT*eG*dT*dT*d[5mC]*dT*dT*dG*d[5mC]*dT*dT*dA*eT*e[5mC]*e[5mC]*eT*e[5mC]; antisense) [compound 531189]	63%
